The values below come from ChEMBL document CHEMBL4811227, “Biosynthesis of Nonimmunosuppressive ProlylFK506 Analogues with Neurite Outgrowth and Synaptogenic Activity” (J Nat Prod, 2021).

Assay [1] concerns CD4+ve Th. In words: Immunosuppressive activity in C57BL/6J mouse CD4+ve T cells assessed as inhibition of CD3/CD28-stimulated CD4+ve T cell proliferation by measuring fold reduction incubated for 72 hrs by CellTrace-violet staining based flow cytometry analysis relative to FK506. The class given is functional. For orientation: In flow cytometry, cells or beads pass a laser one at a time.

The nature of assay [2]: Neurotrophic activity in ICR mouse primary hippocampal neuron assessed as increase in relative spontaneous excitatory postsynaptic current frequency at -70 mV holding potential at 1 ng/ml incubated for 10 to 14 days in presence of bicuculline methiodide. The class given is functional. The settings on record: time 10-14 day.
For assay [3], the system named is Primary hippocampal neuron. Description: Neurotrophic activity in ICR mouse primary hippocampal neuron assessed as induction of neurite outgrowth at 1 ng/ml measured after 48 hrs by photographic imaging analysis. It counts as functional, tissue-based.
The subject of assay [4] is CD4+ve Th. Description: Immunosuppressive activity in C57BL/6J mouse CD4+ve T cells assessed as inhibition of CD3/CD28-stimulated CD4+ve T cell proliferation incubated for 72 hrs by CellTrace-violet staining based flow cytometry analysis. It counts as functional.

Calls of active or inactive are those of the source. No cut-off for these calls is given here.

By IC50 is commonly meant the concentration that gives 50% inhibition. Turning to `CCC[C@@H]1/C=C(\C)C[C@H](C)C[C@H](OC)[C@H]2O[C@@](O)(C(=O)C(=O)N3CCC[C@H]3C(=O)O[C@H](/C(C)=C/[C@@H]3CC[C@@H](O)[C@H](OC)C3)[C@H](C)[C@@H](O)CC1=O)[C@H](C)C[C@@H]2OC`, the “fold change (FC)” value in assay [1] amounted to 120000. Moreover, the Activity in assay [2] was found to be 3.29. Further, the outcome in assay [3] was Active. In addition, the IC50 in assay [4] is 3.97 µM.
Regarding `C=CC[C@@H]1/C=C(\C)C[C@H](C)C[C@H](OC)[C@H]2O[C@@](O)(C(=O)C(=O)N3CCCC[C@H]3C(=O)O[C@H](/C(C)=C/[C@@H]3CC[C@@H](O)[C@H](OC)C3)[C@H](C)[C@@H](O)CC1=O)[C@H](C)C[C@@H]2OC` [TACROLIMUS ANHYDROUS], the Activity in assay [2] stood at 2.61. Moreover, in assay [4], the half-maximal inhibitory concentration (IC50) was determined as 3.4e-05 µM.
Consider `CCC[C@@H]1/C=C(\C)C[C@H](C)C[C@H](OC)[C@H]2O[C@@](O)(CC(=O)N3CCC[C@H]3C(=O)O[C@H](/C(C)=C/[C@@H]3CC[C@@H](O)[C@H](O)C3)[C@H](C)[C@@H](O)CC1=O)[C@H](C)C[C@@H]2OC`, for which, in assay [1], the “fold change (FC)” value came to 220000. Besides, the Activity in assay [2] worked out at 2.63. Moreover, in assay [3], the result was Active. Besides, the IC50 in assay [4] is 7.27 µM.
